# In paper PMC9118212 (ACS Omega, 2022):
# Values joined by “and” are separate entries in the source; they are usually repeats but may differ in a detail not shown here. Equal values may be shown once.
# How the values were obtained:
# HeLa (cervical cancer) = experiment: MTT cytotoxicity assay, HeLa; assay type: cell-based; conditions: Homo sapiens, 48 h, read-out: IC50 ± SD
# [1] = tested on: ARPE-19 (retinal epithelium), nontumor; experiment: MTT cytotoxicity assay, ARPE-19; assay type: cell-based; conditions: Homo sapiens, ARPE-19, 48 h, read-out: IC50 ± SD
# A-549 (lung cancer) = experiment: MTT cytotoxicity assay, A-549; assay type: cell-based; conditions: Homo sapiens, A549, 48 h, read-out: IC50 ± SD
# [2] = tested on: DNA-1 (5′-GTA AGA TGA TTC-3′ and 5′-GAA TCA TCT TAC-3′); assay type: binding; conditions: pH 7.2
# LS-180 (colon cancer) = experiment: MTT cytotoxicity assay, LS-180; assay type: cell-based; conditions: Homo sapiens, LS180, 48 h, read-out: IC50 ± SD
# plasmid DNA pCR 2.1 = experiment: Electrophoretic mobility shift assay; assay type: binding; conditions: 100 ng plasmid, 0.1 nmol compound, 2 h at 37 °C, 1% agarose gel
smiles,measurement,setting,value
"COc1ccc2cc1Oc1ccc(cc1)C[C@H]1c3cc(c(OC)cc3CCN1C)Oc1c(OC)c(OC)cc3c1[C@H](C2)N(C)CC3 [tetrandrine, S,S-(+)-tetrandrine]",IC50,HeLa (cervical cancer),16.6 µg/mL and 26.7 µM
same,IC50,[1],8.45 µg/mL and 13.6 µM
same,IC50,A-549 (lung cancer),12.1 µg/mL and 19.4 µM
same,Stern–Volmer constant (KSV),[2],7.34 × 10^3
same,IC50,LS-180 (colon cancer),6.43 µg/mL and 10.3 µM
same,Effect on electrophoretic mobility of plasmid DNA,plasmid DNA pCR 2.1,reduce the mobility of the plasmid
